Measured values taken from paper PMC8121805, “Discovery of first-in-class inhibitors of ASH1L histone methyltransferase with anti-leukemic activity” (Nature Communications, 2021).
Several values for one entry are separate records, joined by “and”; a condition that tells them apart may be missing. Equal values may be shown once. Each block holds one molecule with its values, some of them ahead of it.

Key:
[1] = biological target: ASH1L (amino acids 2046–2330) (Homo sapiens, UniProt Q9NR48); assay: Histone methyltransferase (HMT) assay; settings: for IC50: IC50, HMT assay with nucleosomes as substrate, mean ± s.d. from two independent experiments
Method: The mixtures of ASH1L and compounds were incubated at room temperature for 1 h. […] The reaction was continued for 1 h at room temperature, then quenched by addition of 10% Trichloroacetic acid (TCA) and then transferred to 96-well filter plates (Millipore sigma, MSFBN6B), washed twice with 10% TCA and then once with 200-proof ethanol. After extensive drying, 70 µL of Microscint-O scintillant (PerkinElmer) was added and counts per minute (CPM) were measured using a MicroBeta microplate counter (PerkinElmer). Titration curves were plotted using Prism (GraphPad Prism 8.0.0.) and IC50 values were calculated.

[2] = tested on: MV4;11 cells; assay: MTT cell viability assay; type: cell-based, human; settings: MTT, 7 days
Method: (§1) FBS and 1% penicillin/streptomycin. […] Media was changed on day 3 or 4 and compounds were resupplied. […] Cell suspensions (100 μL) were transferred to the 96-well plates for each sample in quadruplicate at the time of media change. At day 7, 10 µL of MTT reagent (M6494, Molecular Probes™) was added to each well of the 96 well plate and incubated at 37 °C for 4 h. The formazan was then solubilized by adding 100 µL acidified 10% SDS solution and incubated at 37 °C overnight. Plates were read for absorbance at 570 nm using a PHERAstar BMG microplate reader. The experiments were performed two times in quadruplicates with calculation of mean and SD for each condition. Data were analyzed in Prism 8.0.0 to obtain GI50 values.
(§2) Supplementary Figure 7. […] (a)
(§3) Titration curves from the MTT cell viability assay performed after 4, 7, and 11 (or 10) days of
(§4) Titration curves from the MTT cell viability assay performed after 7 days of treatment of KOPN8 ,
(§5) MOLM13 and MV4;11 cell lines harboring MLL1 translocation (MLL1-r) or K562 cell line (non-
(§6) Representative graphs are shown
(§7) from two independent MTT experiments performed for each cell line.

[3] = tested on: MOLM13 cells; assay: MTT cell viability assay; type: cell-based, human; settings: MTT, 7 days
Method: as §1, §2, §3, §4, §5, §6, §7

[4] = tested on: MLL leukemia cells (MV4;11, MOLM13, KOPN8, RS4;11); assay: MTT cell viability assay, MLL leukemia cells as a group; type: cell-based, human; settings: Homo sapiens, MLL leukemia cells
Method: Human leukemia cells K562, MV4;11 and RS4;11 (purchased from ATCC) and KOPN8, MOLM13 (purchased from DSMZ) were cultured in RPMI 1640 (Invitrogen) supplemented with 10% heat inactivated (h.i.) FBS and 1% penicillin/streptomycin (Invitrogen). SET2 cells (purchased from DSMZ) were cultured in RPMI 1640 supplemented with 20% h.i. FBS and 1% penicillin/streptomycin. Cells were plated at 1 × 10^5 to 2 × 10^5 cells/mL depending on cell line and treated with 0.25% DMSO or varying concentrations of compounds and incubated at 37 °C, 5% CO2 incubator for 7 days. Media was changed on day 3 or 4 and compounds were resupplied. […] Cell suspensions (100 μL) were transferred to the 96-well plates for each sample in quadruplicate at the time of media change. At day 7, 10 µL of MTT reagent (M6494, Molecular Probes™) was added to each well of the 96 well plate and incubated at 37 °C for 4 h. The formazan was then solubilized by adding 100 µL acidified 10% SDS solution and incubated at 37 °C overnight. Plates were read for absorbance at 570 nm using a PHERAstar BMG microplate reader. The experiments were performed two times in quadruplicates with calculation of mean and SD for each condition. Data were analyzed in Prism 8.0.0 to obtain GI50 values.
Supplementary Figure 4. Cell viability assay for AS-6 in MLL leukemia cell lines. Titration curves from the MTT cell viability assay performed after 7 days of treatment of human MLL1- […]
replicates. Representative graphs are shown from two independent MTT experiments performed […]
as §2
Titration curves from the MTT cell viability assay performed after 4, 7, and 11 (or 10) days of […]
Titration curves from the MTT cell viability assay performed after 7 days of treatment of KOPN8 , MOLM13 and MV4;11 cell lines harboring MLL1 translocation (MLL1-r) or K562 cell line (non- […]
Representative graphs are shown from two independent MTT experiments performed for each cell line. GI50 values correspond to […]

[5] = biological target: ASH1L SET domain (2069–2288) (Homo sapiens, UniProt Q9NR48); assay: Isothermal titration calorimetry (ITC); settings: for kcal/mole of injectant: ITC isotherm
Method: All samples were extensively degassed by vacuum aspiration for 20 min prior to measurements. […] All titration data were analyzed with a single-site fitting model using Origin 7.0.

[6] = Log[compound] (M) -5.30642 (4: -5.30643)

- IC50 [1]: 23 µM and 23.5 µM
- % activity ([1]; Log[compound] (M) -3.39794): 6.033% and 2.5275%
- % activity ([1]; Log[compound] (M) -3.87506): 27.0096% and 20.8578%
- % activity ([1]; Log[compound] (M) -4.35218): 40.1717% and 36.6844%
- % activity ([1]; Log[compound] (M) -4.8293): 67.3184% and 49.0775%
- % activity [1, 6]: 79.0319% and 80.9812%
- % activity ([1]; Log[compound] (M) -5.78355): 102.423% and 86.0958%
- % activity ([1]; Log[compound] (M) -6.26067): 109.022% and 106.93%
- % activity ([1]; Log[compound] (M) -6.73779): 106.089% and 90.3699%
SMILES: NCc1ccc2c(-c3cccc(C(N)=S)c3)c[nH]c2c1 [compound 4]

SMILES: CS(=O)(=O)N1CCC(n2cc(-c3cccc(C(N)=S)c3)c3ccc(CNC(=O)Cc4c[nH]cn4)cc32)CC1 [AS-6]
- % activity MV4;11 ([2]; log[compound] -4.30103): 54.5576% and 57.6227% and 55.8763% and 56.7674%
- % activity MV4;11 ([2]; log[compound] -4.60206): 56.8386% and 61.0443% and 58.6207% and 61.2225%
- % activity MV4;11 ([2]; log[compound] -4.90309): 61.2938% and 67.4597% and 60.9374%
- % activity MV4;11 ([2]; log[compound] -5.20412): 76.1205% and 82.5002% and 82.4289% and 79.6846%
- % activity MV4;11 ([2]; log[compound] -5.50515): 94.9746% and 100.606% and 92.9787% and 93.7272%
- % activity MV4;11 ([2]; log[compound] -5.80618): 95.5805% and 97.9685% and 95.0102% and 103.208%
- % activity MV4;11 ([2]; log[compound] -6.10721): 95.9013% and 98.3962% and 101.354% and 104.348%
- % activity MOLM13 ([3]; log[compound] -4.30103): 44.6695% and 48.1072% and 45.3243%
- % activity MOLM13 ([3]; log[compound] -4.60206): 58.0929% and 58.2566% and 58.584% and 59.3207%
- % activity MOLM13 ([3]; log[compound] -4.90309): 66.769% and 64.8864% and 66.8508%
- % activity MOLM13 ([3]; log[compound] -5.20412): 75.8543% and 77.8187% and 79.7831% and 79.8649%
- % activity MOLM13 ([3]; log[compound] -5.50515): 91.8969% and 80.7653% and 85.3489% and 88.2955%
- % activity MOLM13 ([3]; log[compound] -5.80618): 93.7794% and 90.9965% and 88.7047% and 81.3382%
- % activity MOLM13 ([3]; log[compound] -6.10721): 102.456% and 101.555% and 98.1993% and 97.7901%
- GI50 [4]: ~50 µM

- Kd [5]: 6.2 µM
- N (stoichiometry of binding) ([5]; ITC): 1.1
- kcal/mole of injectant ([5]; ASH1L-AS-5 molar ratio 0.12083): -11648.3 kcal/mol
- kcal/mole of injectant ([5]; ASH1L-AS-5 molar ratio 0.18186): -13231.7 kcal/mol
- kcal/mole of injectant ([5]; ASH1L-AS-5 molar ratio 0.2433): -11678.6 kcal/mol
- kcal/mole of injectant ([5]; ASH1L-AS-5 molar ratio 0.30515): -11475.1 kcal/mol
- kcal/mole of injectant ([5]; ASH1L-AS-5 molar ratio 0.36741): -11317.2 kcal/mol
- kcal/mole of injectant ([5]; ASH1L-AS-5 molar ratio 0.43008): -10998.9 kcal/mol
- kcal/mole of injectant ([5]; ASH1L-AS-5 molar ratio 0.49316): -10679.7 kcal/mol
- kcal/mole of injectant ([5]; ASH1L-AS-5 molar ratio 0.55666): -10389.6 kcal/mol
- kcal/mole of injectant ([5]; ASH1L-AS-5 molar ratio 0.62056): -10042.7 kcal/mol
- kcal/mole of injectant ([5]; ASH1L-AS-5 molar ratio 0.68487): -9579.7 kcal/mol
- kcal/mole of injectant ([5]; ASH1L-AS-5 molar ratio 0.7496): -9123.74 kcal/mol
- kcal/mole of injectant ([5]; ASH1L-AS-5 molar ratio 0.81473): -8548.86 kcal/mol
- kcal/mole of injectant ([5]; ASH1L-AS-5 molar ratio 0.88027): -7938.47 kcal/mol
- kcal/mole of injectant ([5]; ASH1L-AS-5 molar ratio 0.94623): -7340.59 kcal/mol
- kcal/mole of injectant ([5]; ASH1L-AS-5 molar ratio 1.0126): -6928.78 kcal/mol
- kcal/mole of injectant ([5]; ASH1L-AS-5 molar ratio 1.07937): -5852.59 kcal/mol
- kcal/mole of injectant ([5]; ASH1L-AS-5 molar ratio 1.14656): -5058.91 kcal/mol
- kcal/mole of injectant ([5]; ASH1L-AS-5 molar ratio 1.21416): -4429.92 kcal/mol
- kcal/mole of injectant ([5]; ASH1L-AS-5 molar ratio 1.28216): -3902.54 kcal/mol
- kcal/mole of injectant ([5]; ASH1L-AS-5 molar ratio 1.35058): -3390.49 kcal/mol
- kcal/mole of injectant ([5]; ASH1L-AS-5 molar ratio 1.41941): -2944.08 kcal/mol
- kcal/mole of injectant ([5]; ASH1L-AS-5 molar ratio 1.48865): -2536.04 kcal/mol
- kcal/mole of injectant ([5]; ASH1L-AS-5 molar ratio 1.5583): -2250.86 kcal/mol
- kcal/mole of injectant ([5]; ASH1L-AS-5 molar ratio 1.62836): -1941.24 kcal/mol
- kcal/mole of injectant ([5]; ASH1L-AS-5 molar ratio 1.69883): -1790.53 kcal/mol
- kcal/mole of injectant ([5]; ASH1L-AS-5 molar ratio 1.76971): -1545.36 kcal/mol
- kcal/mole of injectant ([5]; ASH1L-AS-5 molar ratio 1.841): -1413.63 kcal/mol
- kcal/mole of injectant ([5]; ASH1L-AS-5 molar ratio 1.9127): -1226.06 kcal/mol
- improvement of the activity versus the original fragment hit [1]: over 200 fold
- IC50 [1]: 4 µM
- % activity ([1]; Log[compound] (M) -3.69897): 2.662% and 1.923%
- % activity ([1]; Log[compound] (M) -4.17609): 6.814% and 8.134%
- % activity ([1]; Log[compound] (M) -4.65321): 17.9312% and 20.7044%
- % activity ([1]; Log[compound] (M) -5.13033): 34.0137% and 31.5644%
- % activity ([1]; Log[compound] (M) -5.60746): 45.8867% and 60.6988%
- % activity ([1]; Log[compound] (M) -6.08458): 80.7749% and 70.6538%
- % activity ([1]; Log[compound] (M) -6.5617): 92.8804% and 81.5471%
- % activity ([1]; Log[compound] (M) -7.03882): 105.285% and 87.6496%
SMILES: NCc1ccc2c(-c3cccc(C(N)=S)c3)cn(CCO)c2c1 [AS-5]

- IC50 [1]: 50 µM and 50.5 µM
- % activity ([1]; Log[compound] (M) -2.92082): -0.3683% and -0.3506%
- % activity ([1]; Log[compound] (M) -3.39794): 16.0357% and 15.8766%
- % activity ([1]; Log[compound] (M) -3.87506): 38.4321% and 41.7641%
- % activity ([1]; Log[compound] (M) -4.35218): 49.8512% and 57.5848%
- % activity ([1]; Log[compound] (M) -4.8293): 59.6441% and 71.2665%
- % activity [1, 6]: 79.3978% and 82.615%
- % activity ([1]; Log[compound] (M) -5.78355): 85.6112% and 97.322%
- % activity ([1]; Log[compound] (M) -6.26067): 88.298% and 98.5328%
SMILES: NC(=S)c1cccc(-c2c[nH]c3ccccc23)c1 [compound 2]

- IC50 [1]: 15 µM
- % activity ([1]; Log[compound] (M) -3.69897): 9.186% and 9.699%
- % activity ([1]; Log[compound] (M) -4.17609): 18.9348% and 13.291%
- % activity ([1]; Log[compound] (M) -4.65321): 40.9235% and 30.2223%
- % activity ([1]; Log[compound] (M) -5.13033): 68.7027% and 45.0281%
- % activity ([1]; Log[compound] (M) -5.60746): 106.01% and 80.1368%
- % activity ([1]; Log[compound] (M) -6.08458): 97.0728% and 88.0528%
- % activity ([1]; Log[compound] (M) -6.5617): 107.183% and 116.125%
SMILES: NC(=S)c1cccc(-c2cn(CCO)c3ccccc23)c1 [compound 3]
